Results on 50 compounds are retold here after ChEMBL document CHEMBL3880402, “Inhibitors of E1 activating enzymes” (2006).

pIC50: −log10 of the molar value.

The target of this experiment is T1, NEDD8-activating enzyme E1 catalytic subunit (Homo sapiens, UniProt Q8TBC4).
T1 sequence (Q8TBC4 whole entry): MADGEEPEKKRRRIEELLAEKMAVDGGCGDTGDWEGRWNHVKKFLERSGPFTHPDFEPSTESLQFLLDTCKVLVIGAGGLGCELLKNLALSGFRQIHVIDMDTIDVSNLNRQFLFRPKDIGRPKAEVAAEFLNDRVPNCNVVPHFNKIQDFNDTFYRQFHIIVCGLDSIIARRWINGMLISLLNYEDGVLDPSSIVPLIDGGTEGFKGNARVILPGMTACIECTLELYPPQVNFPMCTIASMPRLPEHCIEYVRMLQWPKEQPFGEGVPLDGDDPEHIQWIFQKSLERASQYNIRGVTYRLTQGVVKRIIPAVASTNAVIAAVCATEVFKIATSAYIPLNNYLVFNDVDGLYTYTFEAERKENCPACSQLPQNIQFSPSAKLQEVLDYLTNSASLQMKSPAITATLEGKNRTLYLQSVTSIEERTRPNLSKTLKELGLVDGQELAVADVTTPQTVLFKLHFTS
In words: Inhibition of recombinant human untagged NAEalpha/N-terminal His-tagged NAEbeta expressed in Bac-to-Bac expression system using FLAG-tagged NEDD8 as substrate after 90 mins in presence of GST-tagged Ubc12 by HTRF assay.
A word on the pIC50: it is the negative decadic logarithm of the IC50, by convention in mol/L. For `NS(=O)(=O)OC[C@H]1O[C@@H](n2cnc3c(NC(=O)c4ccccc4)ncnc32)[C@H](O)[C@@H]1O`, the pIC50 is 6.00 to 7.00.
The figure for `NS(=O)(=O)OC[C@H]1O[C@@H](n2cnc3c(C#Cc4ccc(F)cc4F)ncnc32)[C@H](O)[C@@H]1O` is 6.00 to 7.00; for `Nc1nc(N[C@H]2CCc3ccccc32)c2ncn([C@@H]3O[C@H](COS(N)(=O)=O)[C@@H](O)[C@H]3O)c2n1` it is 6.00 to 7.00.
`NS(=O)(=O)OC[C@H]1O[C@@H](n2ccc3c(N[C@H]4CCc5ccccc54)ncnc32)C[C@@H]1O`: the pIC50 is 6.00 to 7.00.
Then `NS(=O)(=O)NC[C@H]1O[C@@H](n2cnc3c(N[C@H]4CCc5ccccc54)ncnc32)[C@H](O)[C@@H]1O`, with 6.00 to 7.00.
For the compound `Cc1cnc(CNc2ncnc3c2ncn3[C@@H]2O[C@H](CNS(N)(=O)=O)[C@@H](O)[C@H]2O)cn1`, the pIC50 is at least 6.00.
For the compound `CN(c1ncnc2c1ncn2[C@@H]1O[C@H](COS(N)(=O)=O)[C@@H](O)[C@H]1O)[C@H]1CCc2ccccc21`, the pIC50 was 6.00 to 7.00.
Take `NS(=O)(=O)OC[C@H]1O[C@@H](n2cnc3c(-c4cccc(-n5cccn5)c4)ncnc32)[C@H](O)[C@@H]1O`: the pIC50 is 6.00 to 7.00.
`COc1cccc(CNc2ncnc3c2ncn3[C@@H]2O[C@H](CNS(N)(=O)=O)[C@@H](O)[C@H]2O)c1`: the pIC50 is 6.00 to 7.00.
In the case of `NS(=O)(=O)OC[C@H]1O[C@@H](n2cnc3c(C#Cc4ccccc4)ncnc32)[C@H](O)[C@@H]1O`, the pIC50 was 6.00 to 7.00.
As for `C[C@@]1(O)[C@H](O)[C@@H](COS(N)(=O)=O)O[C@H]1n1cnc2c(N[C@H]3CCc4ccccc43)ncnc21`, the pIC50 was 6.00 to 7.00.
For the compound `NS(=O)(=O)OC[C@H]1O[C@@H](n2cnc3c(C#Cc4cccc(C(F)(F)F)c4)ncnc32)[C@H](O)[C@@H]1O`, the pIC50 is 6.00 to 7.00.
Take `NS(=O)(=O)OC[C@H]1O[C@@H](n2cnc3c(-c4ccccc4)ncnc32)[C@H](O)[C@@H]1O`: the pIC50 is 6.00 to 7.00.
`NS(=O)(=O)NC[C@H]1O[C@@H](n2cnc3c(NCC(c4ccccc4)c4ccccc4)ncnc32)[C@H](O)[C@@H]1O`: the pIC50 is 6.00 to 7.00.
With `Cc1cnc(CNc2ncnc3c2ncn3[C@@H]2O[C@H](COS(N)(=O)=O)[C@@H](O)[C@H]2O)cn1`, the pIC50 was 6.00 to 7.00.
Consider `CC(=O)NCc1ccccc1CNc1ncnc2c1ncn2[C@@H]1O[C@H](COS(N)(=O)=O)[C@@H](O)[C@H]1O`, for which the pIC50 was 6.00 to 7.00.
Take `NS(=O)(=O)OC[C@H]1O[C@@H](n2cnc3c(N[C@H]4CCc5ccccc54)nc(Cl)nc32)[C@H](O)[C@@H]1O`: the pIC50 is 6.00 to 7.00.
Then `NS(=O)(=O)OC[C@H]1O[C@@H](n2cnc3c(NCc4ccc(OC(F)(F)F)cc4)ncnc32)[C@H](O)[C@@H]1O`, with 6.00 to 7.00.
Then `NS(=O)(=O)OC[C@H]1O[C@@H](n2ccc3c(N[C@H]4CCc5ccccc54)ncnc32)[C@H](O)[C@@H]1O`, with 6.00 to 7.00; and `CC(C)Cc1ncnc2c1ncn2[C@@H]1O[C@H](COS(N)(=O)=O)[C@@H](O)[C@H]1O`, with at least 6.00.
Take `NS(=O)(=O)OC[C@H]1O[C@@H](n2cnc3c(NCCN4CCN(Cc5ccccc5)CC4)ncnc32)[C@H](O)[C@@H]1O`: the pIC50 was 6.00 to 7.00.
For the compound `NS(=O)(=O)OC[C@H]1O[C@@H](n2cnc3c(NS(=O)(=O)c4ccccc4)ncnc32)[C@H](O)[C@@H]1O`, the pIC50 was 6.00 to 7.00.
Then `NS(=O)(=O)OC[C@H]1O[C@@H](n2cnc3c(NC(=O)c4ccc(Br)cc4)ncnc32)[C@H](O)[C@@H]1O`, with 6.00 to 7.00; and `CCc1ncnc2c1ncn2[C@@H]1O[C@H](COS(N)(=O)=O)[C@@H](O)[C@H]1O`, with 6.00 to 7.00.
`NS(=O)(=O)CC[C@H]1O[C@@H](n2cnc3c(N[C@H]4CCc5ccccc54)ncnc32)[C@H](O)[C@@H]1O`: the pIC50 is 6.00 to 7.00.
Regarding `NS(=O)(=O)OC[C@H]1O[C@@H](n2cnc3c(NCc4ccc(F)cc4)ncnc32)[C@H](O)[C@@H]1O`, the pIC50 is 6.00 to 7.00.
Turning to `NS(=O)(=O)OC[C@H]1O[C@@H](n2cnc3c(C#Cc4cc(F)cc(F)c4)ncnc32)[C@H](O)[C@@H]1O`, the pIC50 is 6.00 to 7.00.
`NS(=O)(=O)OC[C@H]1O[C@@H](n2cnc3c(NCC4CCNCC4)ncnc32)[C@H](O)[C@@H]1O`: the pIC50 is 6.00 to 7.00.
On to `NS(=O)(=O)OC[C@H]1O[C@@H](n2cnc3c(NCCN4CCCC4)ncnc32)[C@H](O)[C@@H]1O`, for which the pIC50 is 6.00 to 7.00.
Turning to `NS(=O)(=O)OC[C@H]1O[C@@H](n2cnc3c(N[C@H]4CCc5ccccc54)ncnc32)[C@H](O)[C@@H]1O`, the pIC50 was 6.00 to 7.00.
As to `CC(C)Cc1ncnc2c1ncn2[C@@H]1C[C@H](COS(N)(=O)=O)[C@@H](O)[C@H]1O`, the pIC50 is at least 6.00.
`NS(=O)(=O)OC[C@H]1O[C@@H](n2cnc3c(C#Cc4cccc(Cl)c4)ncnc32)[C@H](O)[C@@H]1O`: the pIC50 was 6.00 to 7.00.
Consider `NS(=O)(=O)OC[C@H]1O[C@@H](n2cnc3c(NCCc4ccccc4)ncnc32)[C@H](O)[C@@H]1O`, for which the negative-log IC50 (pIC50) was 6.00 to 7.00.
Then `NS(=O)(=O)OC[C@H]1O[C@@H](n2cnc3c(CNC(=O)c4cccnc4)ncnc32)[C@H](O)[C@@H]1O`, with 6.00 to 7.00; and `NS(=O)(=O)NC[C@H]1O[C@@H](n2cnc3c(N[C@@H]4CCc5ccccc54)ncnc32)[C@H](O)[C@@H]1O`, with 6.00 to 7.00.
On to `NS(=O)(=O)OC[C@H]1O[C@@H](n2cnc3c(CCc4ccccc4)ncnc32)[C@@H](F)[C@@H]1O` (relative stereo), for which the pIC50 was 6.00 to 7.00.
Regarding `NS(=O)(=O)OC[C@H]1O[C@@H](n2cnc3c(C#Cc4ccccc4)ncnc32)C[C@@H]1O`, the negative logarithm of the IC50 (pIC50) is 6.00 to 7.00.
Turning to `NS(=O)(=O)OC[C@H]1O[C@@H](n2cnc3c(N[C@H]4CCc5ccccc54)ncnc32)[C@@H](F)[C@@H]1O`, the pIC50 is 6.00 to 7.00.
On to `NS(=O)(=O)OC[C@H]1O[C@@H](n2cnc3c(N[C@H]4CCc5ccccc54)ncnc32)[C@@H](O)[C@@H]1O`, for which the pIC50 is 6.00 to 7.00.
With `NS(=O)(=O)OC[C@H]1O[C@@H](n2cnc3c(N[C@H]4CCc5ccccc54)nccc32)[C@H](O)[C@@H]1O`, the pIC50 is 6.00 to 7.00.
Consider `COc1cccc(CNc2ncnc3c2ncn3[C@@H]2O[C@H](COS(N)(=O)=O)[C@@H](O)[C@H]2O)c1`, for which the pIC50 was 6.00 to 7.00.
Take `NS(=O)(=O)OC[C@H]1O[C@@H](n2cnc3c(C#Cc4ccccc4C(F)(F)F)ncnc32)[C@H](O)[C@@H]1O`: the pIC50 is 6.00 to 7.00.
Then `NS(=O)(=O)NC[C@H]1C[C@@H](n2cnc3c(N[C@H]4CCc5ccccc54)ncnc32)[C@H](O)[C@@H]1O`, with 6.00 to 7.00; and `NS(=O)(=O)CC[C@H]1O[C@@H](n2cnc3c(N[C@@H]4c5ccccc5C[C@@H]4O)ncnc32)[C@H](O)[C@@H]1O`, with 6.00 to 7.00.
With `NS(=O)(=O)OC[C@H]1O[C@@H](n2cnc3c(N[C@@H]4c5ccccc5C[C@@H]4O)ncnc32)[C@H](O)[C@@H]1O`, the pIC50 is 6.00 to 7.00.
As to `CC1(C)CC(Nc2ncnc3c2ncn3[C@@H]2O[C@H](CCS(N)(=O)=O)[C@@H](O)[C@H]2O)c2ccccc21` (stereo not given in full), the negative logarithm of the IC50 (pIC50) is 6.00 to 7.00.
In the case of `COc1ccccc1C(=O)NCc1ncnc2c1ncn2[C@@H]1O[C@H](COS(N)(=O)=O)[C@@H](O)[C@H]1O`, the pIC50 is 6.00 to 7.00.
`NS(=O)(=O)OC[C@H]1O[C@@H](n2cnc3c(C#Cc4ccc(Cl)cc4)ncnc32)[C@H](O)[C@@H]1O`: the pIC50 was 6.00 to 7.00.
Then `NS(=O)(=O)CC[C@H]1O[C@@H](n2cnc3c(NC(c4ccccc4)c4ccccc4)ncnc32)[C@H](O)[C@@H]1O`, with 6.00 to 7.00; and `NS(=O)(=O)OC[C@H]1O[C@@H](n2cnc3c(NCc4ccc5c(c4)OCO5)ncnc32)[C@H](O)[C@@H]1O`, with 6.00 to 7.00.
